From patent US8778889B2, “Antimicrobial decapeptide oral hygiene treatment” (The United States of America as represented by the …, priority 2003, dated 2014) come the findings set out here.

Ends that are not written are not given here.

Usually MBC stands for the lowest tested concentration that kills the bacteria rather than only halting them. Read a high MBC as weaker bactericidal potency. In general, MIC refers to the least concentration at which growth counts as inhibited. A high value points to a less susceptible organism.

In assay [1] the test system is VRE ATCC #51299. The class given is cell-based, Enterococci. The text has this: (§1) As shown in the table below, many drug-resistant pathogens including multidrug-resistant Acinetobacter baumannii (clinical isolates) were susceptible to the bactericidal activity of the newly developed antimicrobial peptides. […] This is shown by their lower MIC and MBC against a number of antibiotic-resistant bacteria including methicillin-resistant Staphylococcus aureus, vancomycin-resistant Enterococci, and multidrug-resistant Acinetobacter baumannii. Many of these resistant strains are involved in nosocomial infections, which affect the immunocompromised and the elderly individuals with weakened defenses. The tests were done in a broth microdilution assay as described in our earlier publication (Concannon et al., 2003).

The test system of assay [2] is VRE VVRAMC #7. The class given is cell-based, Enterococci.
Description: as §1

For assay [3], the system named is VRE WRAMC #3. The class given is cell-based, Enterococci.
Description: as §1

In assay [4] the test system is VRE WRAMC #6. The class given is cell-based, Enterococci.
Description: as §1

The test system of assay [5] is oral biofilms formed by salivary bacteria on saliva-conditioned Ge surfaces. Put plainly: Dual flow cell oral biofilm development (DIC microscopy). The class given is cell-based, human salivary bacteria. The text has this:
The dual flow cell system used in this study was modified from the chemostat flow cells of Herles et al. (Herles et al., 1994) and constructed according to our design and specifications by BioSurface Technologies (Bozeman, Mont.) (FIG. 1). The flow cell consisted of two compartments, each containing a polycarbonate flow chamber with three recesses to hold the Ge disks (10 mm in diameter and 1.8 mm in thickness) upon which biofilms were formed. Ge disks provided reflective surfaces that allowed the visualization of unstained biofilms using differential interference contrast (DIC) microscopy.
To form biofilms, Ge disks (Mindrum, Rancho Cucamonga, Calif.) in the dual flow cell were conditioned for one hour with sterile 50% human whole saliva. Isolated salivary bacteria, adjusted to approximately 1.0×10^7 cells/ml in 50% saliva (total, 1.5 ml), were injected into the flow chambers. After two hours of initial adherence of bacteria onto disk surfaces, the flow of culture medium (20% Todd-Hewitt broth) was started at a rate of 0.2 ml/min (Foster et al., 2004). The flow rate employed generated a shear rate of approximately 9.65 s^−1 on the substrate surface, and is compatible with the fluid flow in the oral cavity (Bakker et al., 2003).
To evaluate the effects of KSL in controlling the development and maturation of oral biofilms, surface adhered cells (after initial colonization) were perfused continuously with KSL-free or KSL-containing media (KSL at 10 or 50 μg/ml). Alternatively, biofilms at different stages of maturation (i.e., 4, or 6 h after inoculation) were pulse-treated using an injection pump at 0.2 ml/min with 50 μg/ml KSL in 20% THB or the control medium for 30 min at 2 hr intervals. Direct comparison of the effects of antimicrobials on the growth of biofilms between treated versus untreated was made in real-time by DIC microscopy.

The test system of assay [6] is biofilms grown on saliva-coated HA surfaces. Description: Live/Dead BacLight staining with confocal laser scanning microscopy of treated biofilms. The format is cell-based, human salivary bacteria. The note with it: 66 h-old biofilms; KSL 200 μg/ml, Bzl 0.001%, CHX 0.12%. As for the experimental part: (A) Effect of KSL on intact versus disrupted 45 h biofilms formed on saliva-coated HA disks by salivary bacteria using the in vitro plaque assay. A Mann-Whitney test was used for comparison of log reductions in CFU between the experimental groups (KSL-treated intact or disrupted biofilms) with the control groups (dH2O-treated intact or disrupted biofilms). The single asterisk represents a statistically significant difference between KSL and dH2O-treated intact biofilms (p<0.05). Likewise, double asterisks represent a statistically significant difference between KSL and dH2O-treated disrupted biofilms (p<0.01). […] (B) Effect of benzalkonium chloride in promoting the bactericidal activity of KSL against 66 h-old intact oral biofilms formed on saliva-coated HA disks using the in vitro plaque system. A Kruskal-Wallis test was used to compare log reductions in CFU among various treatment groups including the control group (dH2O-treated). The single asterisk represents a statistically significant difference between the combined treatment of KSL and benzalkonium chloride (Bzl) and dH2O (p<0.001), KSL (p<0.01), or Bzl (p<0.01)-treated intact biofilms. Double asterisks represent a statistically significant difference between CHX and dH2O (p<0.001) or Bzl (P<0.05)-treated intact biofilms. […] No significant difference in viability counts was observed between CHX-treated versus the combined use of KSL and Bzl. For (A) and (B), the data represent the determinations of one of three separate experiments, each performed in quadruplicate. Bars represent standard deviations. (C) Confocal images of control and treated biofilms grown on saliva-coated HA surfaces. Live/Dead BacLight™ Viability kit (Molecular Probes, Eugene, Oreg.) was used to assess the viability of biofilm cells exposed to different treatments. […] An excitation wavelength of 488 nm was used and the fluorescence light emitted was collected by two separate emission filters, 500-530 nm (SYTO 9, live), and 650-710 nm (propidium iodide, dead). […]

For “KKVVFKVKFK-NH2 [KSL, Lys-Lys-Val-Val-Phe-Lys-Val-Lys-Phe-Lys-NH2]”, the MBC is above 200 µg/mL in assay [1], 100 µg/mL in assay [2], above 200 µg/mL in assay [3] and 100 µg/mL in assay [4]. For the same substance, the MIC in assay [1] and in assay [3] was above 200 µg/mL throughout. For the same substance, the “effect on oral biofilm development” value in assay [5] (continuous perfusion, KSL at 10 μg/ml) is reported as “partially effective in inhibiting biofilm formation”; in assay [5] (continuous perfusion, KSL at 50 μg/ml), “disrupted biofilm development”; in assay [5] (pulsed treatment (30 min every 2 h, 50 μg/ml) starting 4 h after inoculation) it was “inhibited biofilm formation”; in assay [5] (pulsed treatment (30 min every 2 h, 50 μg/ml) starting 6 h after inoculation), “failed to inhibit the development of biofilm structures”. Besides, the “viability of biofilm cells by live/dead staining” value in assay [6] is “less impact on the viability of biofilm cells”.
